Experimental findings from US9187497B2, “Substituted pyrido[3,2-e]pyrrolo[1,2-a]pyrazines as inhibitors of poly(ADP-ribose)polymerase (PARP)” (Takeda Phamaceutical Company Limited, priority 2009, dated 2015) are described below.

Some results are limits rather than exact numbers.

For this assay, the system named is Jurkat cell line. Nature of the assay: PARP cellular chemopotentiation assay (MTS cell viability with and without TMZ). In kind it is cell-based. The conditions noted are these: ratio of EC50 for inhibition of cell viability without and with 100 μM TMZ; Jurkat cells, 96 hours of treatment. The protocol:
Potentiation Factor (PF50) Determination from PARP Cellular Chemopotentiation Assay
Jurkat cell line was maintained according to the supplier (American Type Culture Collection (Rockville, Md.)). Cells were seeded in 96-well tissue culture microplates at 10,000 cells per well and cultured for 24 hours prior to addition of compounds, TMZ (Temozolomide) or DMSO (dimethylsulfoxide) vehicle. After 96 hours of treatment, the conversion of MTS ([3-(4,5-dimethylthiazol-2-yl)-5-(3-carboxymethoxyphenyl)-2-(4-sulfophenyl)-2H-tetrazolium, inner salt], Promega, Madison, Wis.) by metabolically active cells was determined through measuring the OD490 nm with a Spectramax microplate reader (Molecular Devices, San Diego, Calif.). To generate concentration-response curves, cells were treated in duplicate with a range of serial compound dilutions (final DMSO concentration was 0.5%) in the absence or presence of 100 μM TMZ chemoreagent. The percentage of viable cells per well was calculated by correction for background and normalizing against DMSO-treated cells. EC50 values for inhibition of cell viability were calculated using XLfit4 MicroSoft Excel curve-fitting software. Chemopotentiation factor PF50 was calculated as the ratio of EC50 values of cells co-treated without and with TMZ, respectively.
As to `O=C1Nc2cc(CN3CCN(c4ccccn4)CC3)cnc2N2CCC[C@@H]12` [Compound 26, (S)-3-((4-(pyridin-2-yl)piperazin-1-yl)methyl)-6a,7,8,9-tetrahydropyrido[3,2-e]pyrrolo[1,2-a]pyrazin-6(5H)-one], the PF50 is listed as >10.
`O=C1Nc2cc(CN3CCN(c4ccc(F)cc4F)CC3)cnc2N2CCC[C@@H]12` [Compound 15, (S)-3-((4-(2,4-difluorophenyl)piperazin-1-yl)methyl)-6a,7,8,9-tetrahydropyrido[3,2-e]pyrrolo[1,2-a]pyrazin-6(5H)-one]: the PF50 is reported as >500.
`O=C1Nc2cc(CN3CCN(c4ccc(C(F)(F)F)cc4)CC3)cnc2N2CCC[C@@H]12` [Compound 48, (S)-3-((4-(4-(trifluoromethyl)phenyl)piperazin-1-yl)methyl)-6a,7,8,9-tetrahydropyrido[3,2-e]pyrrolo[1,2-a]pyrazin-6(5H)-one]: the PF50 result is reported as “≧0”.
`N#Cc1ccc(N2CCN(Cc3cnc4c(c3)NC(=O)[C@@H]3CCCN43)CC2)c(F)c1F` [Compound 18, (S)-2,3-difluoro-4-(4-((6-oxo-5,6,6a,7,8,9-hexahydropyrido[3,2-e]pyrrolo[1,2-a]pyrazin-3-yl)methyl)piperazin-1-yl)benzonitrile]: the PF50 was >10.
For `N#Cc1ccc(N2CCN(Cc3cnc4c(c3)NC(=O)C3COCCN43)CC2)nc1` (stereo not shown) [Compound 100, 6-(4-((6-oxo-5,6,6a,7,9,10-hexahydro-[1,4]oxazino[4,3-a]pyrido[3,2-e]pyrazin-3-yl)methyl)piperazin-1-yl)nicotinonitrile] the value was >10.
On to `N#Cc1ccc(N2CCN(Cc3cnc4c(c3)NC(=O)[C@@H]3CSCCN43)CC2)nc1` [Compound 89, (R)-6-(4-((6-oxo-5,6,6a,7,9,10-hexahydropyrido[3,2-e][1,4]thiazino[4,3-a]pyrazin-3-yl)methyl)piperazin-1-yl)nicotinonitrile], for which the PF50 is recorded as >10.
As for `O=C1Nc2cc(CN3CCN(c4cc(F)cc(F)c4)CC3)cnc2N2CCC[C@@H]12` [Compound 46, (S)-3-((4-(3,5-difluorophenyl)piperazin-1-yl)methyl)-6a,7,8,9-tetrahydropyrido[3,2-e]pyrrolo[1,2-a]pyrazin-6(5H)-one], the PF50 result is “≧0”.
To `O=C1Nc2cc(CN3CC=C(c4ccc(Cl)cc4)CC3)cnc2N2CCSC[C@@H]12` [Compound 91, (R)-3-((4-(4-chlorophenyl)-5,6-dihydropyridin-1(2H)-yl)methyl)-6a,7,9,10-tetrahydropyrido[3,2-e][1,4]thiazino[4,3-a]pyrazin-6(5H)-one] belongs >2000.
`N#Cc1ncc(N2CCN(Cc3cnc4c(c3)NC(=O)[C@@H]3CCCN43)CC2)cc1F` [Compound 22, (S)-3-fluoro-5-(4-((6-oxo-5,6,6a,7,8,9-hexahydropyrido[3,2-e]pyrrolo[1,2-a]pyrazin-3-yl)methyl)piperazin-1-yl)picolinonitrile]: the PF50 is >10.
For `CNC(=O)c1ccc(N2CCN(Cc3cnc4c(c3)NC(=O)[C@@H]3CSCCN43)CC2)cc1` [Compound 98, (R)—N-methyl-4-(4-((6-oxo-5,6,6a,7,9,10-hexahydropyrido[3,2-e][1,4]thiazino[4,3-a]pyrazin-3-yl)methyl)piperazin-1-yl)benzamide], the PF50 is reported as >5000.
Consider `O=C1Nc2cc(CN3CCC(c4ccc(Cl)cc4)CC3)cnc2N2CCC[C@H]12` [Compound 51, (R)-3-((4-(4-chlorophenyl)piperidin-1-yl)methyl)-6a,7,8,9-tetrahydropyrido[3,2-e]pyrrolo[1,2-a]pyrazin-6(5H)-one], for which the PF50 entry is on record as “≧0”.
`CC(C)NC(=O)c1ccc(N2CCN(Cc3cnc4c(c3)NC(=O)[C@@H]3CCCCN43)CC2)nc1` [Compound 76, (S)—N-isopropyl-6-(4-((6-oxo-6,6a,7,8,9,10-hexahydro-5H-dipyrido[1,2-a:3′,2′-e]pyrazin-3-yl)methyl)piperazin-1-yl)nicotinamide]: the PF50 result is recorded as “≧0”.
With `O=C1Nc2cc(CN3CCN(c4nc5ccccc5o4)CC3)cnc2N2CCC[C@@H]12` [Compound 41, (S)-3-((4-(benzo[d]oxazol-2-yl)piperazin-1-yl)methyl)-6a,7,8,9-tetrahydropyrido[3,2-e]pyrrolo[1,2-a]pyrazin-6(5H)-one], the PF50 result is on record as “≧0”.
Turning to `CC(C)NC(=O)c1ccc(N2CCN(Cc3cnc4c(c3)NC(=O)[C@@H]3CCCN43)CC2)nc1` [Compound 9, (S)—N-isopropyl-6-(4-((6-oxo-5,6,6a,7,8,9-hexahydropyrido[3,2-e]pyrrolo[1,2-a]pyrazin-3-yl)methyl)piperazin-1-yl)nicotinamide], the PF50 entry is “≧0”.
Turning to `CC(=O)c1ccc(N2CCN(Cc3cnc4c(c3)NC(=O)[C@@H]3CCCN43)CC2)cc1` [Compound 25, (S)-3-((4-(4-acetylphenyl)piperazin-1-yl)methyl)-6a,7,8,9-tetrahydropyrido[3,2-e]pyrrolo[1,2-a]pyrazin-6(5H)-one], the PF50 result is listed as “≧0”.
Regarding `COc1ccc(N2CCN(Cc3cnc4c(c3)NC(=O)[C@@H]3CCCN43)CC2)cc1` [Compound 31, (S)-3-((4-(4-methoxyphenyl)piperazin-1-yl)methyl)-6a,7,8,9-tetrahydropyrido[3,2-e]pyrrolo[1,2-a]pyrazin-6(5H)-one], the PF50 entry was “≧0”.
To `O=C(NC1CC1)c1ccc(N2CCN(Cc3cnc4c(c3)NC(=O)[C@@H]3CCCCN43)CC2)nc1` [Compound 79, (S)—N-cyclopropyl-6-(4-((6-oxo-6,6a,7,8,9,10-hexahydro-5H-dipyrido[1,2-a:3′,2′-e]pyrazin-3-yl)methyl)piperazin-1-yl)nicotinamide] belongs >10; to `O=C1Nc2cc(CN3CC=C(c4ccc(Cl)cc4)CC3)cnc2N2CCC[C@H]12` [Compound 49, (R)-3-((4-(4-chlorophenyl)-5,6-dihydropyridin-1(2H)-yl)methyl)-6a,7,8,9-tetrahydropyrido[3,2-e]pyrrolo[1,2-a]pyrazin-6(5H)-one], “≧0”; to `CCNC(=O)c1ccc(N2CCN(Cc3cnc4c(c3)NC(=O)[C@@H]3CCCCN43)CC2)nc1` [Compound 78, (S)—N-ethyl-6-(4-((6-oxo-6,6a,7,8,9,10-hexahydro-5H-dipyrido[1,2-a:3′,2′-e]pyrazin-3-yl)methyl)piperazin-1-yl)nicotinamide], >10.
As to `O=C1Nc2cc(CN3CCN(c4ccc(Cl)cc4)CC3)cnc2N2CCC[C@H]12` [Compound 50, (R)-3-((4-(4-chlorophenyl)piperazin-1-yl)methyl)-6a,7,8,9-tetrahydropyrido[3,2-e]pyrrolo[1,2-a]pyrazin-6(5H)-one], the PF50 result is given as “≧0”.
As for `CN1CCN2c3ncc(CN4CCN(c5ccc(Cl)cc5)CC4)cc3NC(=O)C2C1` (stereo not shown) [Compound 97, 7-[4-(4-Chloro-phenyl)-piperazin-1-ylmethyl]-2-methyl-1,3,4,10a-tetrahydro-2H,9H-2,4a,5,9-tetraaza-phenanthren-10-one], the PF50 entry is “≧0”.
Take `O=C1Nc2cc(CN3CCN(c4cccc(F)c4)CC3)cnc2N2CCC[C@@H]12` [Compound 38, (S)-3-((4-(3-fluorophenyl)piperazin-1-yl)methyl)-6a,7,8,9-tetrahydropyrido[3,2-e]pyrrolo[1,2-a]pyrazin-6(5H)-one]: the PF50 entry was “≧0”.
